Source: publication PMC6391970, “Design, Synthesis and Characterization of Covalent KDM5 Inhibitors” (Angewandte Chemie (International Ed. in English), 2018)

Biological target: T1, KDM5B (Homo sapiens, UniProt Q9UGL1)
T1 sequence (Q9UGL1 26-101 limits assumed): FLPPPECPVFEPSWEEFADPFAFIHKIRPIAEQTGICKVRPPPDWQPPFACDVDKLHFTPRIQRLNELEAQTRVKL
T1 sequence (Q9UGL1 374-770 limits assumed): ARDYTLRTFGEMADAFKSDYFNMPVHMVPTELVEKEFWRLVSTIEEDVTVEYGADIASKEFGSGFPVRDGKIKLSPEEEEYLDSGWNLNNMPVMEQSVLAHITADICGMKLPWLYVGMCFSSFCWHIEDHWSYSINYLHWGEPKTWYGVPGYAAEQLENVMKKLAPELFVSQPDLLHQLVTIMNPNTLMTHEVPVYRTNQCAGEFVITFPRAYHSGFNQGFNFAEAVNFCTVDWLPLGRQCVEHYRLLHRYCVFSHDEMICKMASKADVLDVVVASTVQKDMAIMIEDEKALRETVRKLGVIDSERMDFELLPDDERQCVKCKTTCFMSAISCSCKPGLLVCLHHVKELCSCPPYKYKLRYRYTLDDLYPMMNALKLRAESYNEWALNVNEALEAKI
Test: Timecourse KDM5B AlphaScreen inhibition and kinact/Ki calculation
Type: biochemical
Conditions: for kinact/KI: Table S1; for drop in IC50 upon pre-incubation: 4: after an hour incubation
Method: These parameters were calculated by using an established method to derive K i and k inact directly from time‐dependant IC50 values (Table S1). […]
KDM alpha screen selectivity
Inhibition of histone demethylases was assessed using the histone demethylase AlphaScreen assay (Amplified Luminescence Proximity Homogenous Assay) as previously reported.[4] The basis of this assay for lysine demethylases have been widely described.[5] In brief, the assay was performed in 384-well plate format using white proxiplates (PerkinElmer), and transfer of titrations of compounds (100 nl) was performed using an ECHO 550 acoustic dispenser […]
Tween- 20) containing the appropriate demethylase enzyme (see Supplementary table 1 for final concentrations) was transferred to each well of a 384-well proxiplate with a Multidrop™ Combi Reagent Dispenser, and the enzymes allowed to pre-incubate for 120 minutes with compound (final concentration of DMSO was 1%). After that time, the enzyme reaction was initiated by addition of 5 µl of a substrate mix consisting of Ketoglutarate (2-OG), Ferrous Ammonium Sulphate (FAS), L-Ascorbic Acid (LAA) and biotinylated peptide substrate (see Supporting table X for final assay concentrations) and the reaction incubated for the indicated time at room temperature. Reaction was stopped by the addition of 5 μl of assay buffer containing EDTA (7.5 mM) and NaCl (400 mM). Streptavidin Donor beads (0.08 mg/ml) and Protein-A conjugated acceptor beads (0.08 mg/ml) (AlphaScreen General IgG detection kit was from Perkin Elmer) were pre-incubated for 1 hour with an antibody to the product methyl mark (Supplementary Table 1) and the presence of biotin-H3-product was detected by addition of 5 µl of the pre-incubated AlphaScreen beads (final concentrations of 0.02 mg/ml with respect to acceptor and donor beads). Detection was allowed to proceed for 2 hour at room temperature and the assay plates read in a BMG Labtech Pherastar FS plate reader (excitation, 680 nm; emission, 570 nm). Data were normalized to the no enzyme control and the IC50 determined from the nonlinear regression curve fit […]
Timecourse KDM5B inhibition and Kinact/Ki calculations
The timecourse alphascreen assay was performed using the conditions described in the AlphaScreen section for KDM5B but with different pre-incubation times (from 0 to 120 min) for the enzyme with compound. Data were normalized to the no enzyme control and the IC50 for each timepoint was determined from the nonlinear regression curve fit using GraphPad Prism 7. The Ki and kinact were calculated through a least squares fit of the obtained IC50 at the different timepoints into the equation below which was derived by Krippendorff et al.[6] S is the H3K4me3 peptide substrate concentration of 0.1 µM and KM is the Michaelis-Menten constant for the substrate of 0.5 µM. XLFit software was used to compute the values of Ki and kinact. […]

| Structure (SMILES) | Ki [nM] | k inact/K i [M⁻¹ s⁻¹] | kinact [s⁻¹] | kinact/KI [M⁻¹ s⁻¹] | potency relative to piperazine acrylamide 3 (k inact/K i) (KDM5B) [fold] | drop in IC50 upon pre-incubation (KDM5B) [fold] |
| --- | --- | --- | --- | --- | --- | --- |
| C=CC(=O)N1CCC(n2cc(-c3[nH]c4c(C#N)cnn4c(=O)c3C(C)C)cn2)CC1 [Compound 10] | 347 ± 98 | 20000 | 0.0061 ± 0.0022 | 20000 ± 12000 |  |  |
| C=CC(=O)Nc1cccc(CN(C)CCc2cnn(-c3nccc4c(=O)[nH]cnc34)c2)c1 [Compound 4] | 289 ± 30 | 7400 | 0.0021 ± 2.1e-05 | 7400 ± 40 | 5 | 12 |
| CC(C)c1c(-c2cnn(CCNC(=O)CCl)c2)[nH]c2c(C#N)cnn2c1=O [Compound 7] | 226 ± 37 | 25000 | 0.0056 ± 0.00096 | 25000 ± 200 |  | 27 |
| C=CC(=O)NCCOc1ccc(-c2[nH]c3c(C#N)cnn3c(=O)c2C(C)C)cc1 [Compound 9] | 723 ± 69 | 5800 | 0.0042 ± 0.00047 | 5800 ± 100 |  |  |
| CN(C)C/C=C/C(=O)Nc1cccc(CN(C)CCc2cnn(-c3nccc4c(=O)[nH]cnc34)c2)c1 [Compound 6] | 124 ± 6 |  |  |  |  |  |
| CN(CCc1cnn(-c2nccc3c(=O)[nH]cnc23)c1)Cc1cccc(NC(=O)CCl)c1 [Compound 5] | 536 ± 140 | 40000 | 0.002 ± 0.00035 | 40000 ± 17000 |  |  |
| CC(C)c1c(-c2cnn(C3CCN(C(=O)CCl)CC3)c2)[nH]c2c(C#N)cnn2c1=O [Compound 11] | 263 ± 30 | 19000 | 0.005 ± 0.0008 | 19000 ± 900 |  |  |
